Measurements taken from US20250127777A1, “DUAL INHIBITION OF MDM2 AND EIF2-ALPHA INDUCES CELL DEATH IN MULTIPLE CANCER CELL TYPES” (The Regents of the University of Colorado, A Body Corporate, priority 2022, published 2025).

Columns and labels:
diverse cell types = test: Annexin V-FITC/PI apoptosis assay, elF2α plus MDM2 inhibition; assay type: cell-based
Description: (§1) TPC1, K1, HCT116, MCF7, SJSA, and HEK293FT cells were cultivated in RPMI (TPC1, SJSA), DMEM (K1, MCF7, HEK293FT), and McCoy's (HCT116) media (Gibco, Thermo Fisher Scientific) supplemented with 10% fetal bovine serum (Peak Serum) and 1% antibiotic-antimycotic mixture (Gibco). Cells were plated a day before the treatment and maintained in a humidified atmosphere with 5% of CO2 at 37° C. Both TPC1 and K1 lines were gifts from Dr. Rebecca Schweppe, University of Colorado Anschutz Medical Campus (CU-AMC). Cell line identity has been verified by short tandem repeats profiling at the Cell Technologies Shared Resource, CU-AMC. Colorectal cancer organoid cultures (CRC172) were obtained from the Enteroid Stem Cell Core facility at CU-AMC.
The fraction of apoptotic cells was determined by Annexin V-FITC/PI assay. Briefly, cells harvested by trypsinization were resuspended in Annexin-V binding buffer (10 mM HEPES pH 7.4, 140 mM NaCl, 2.5 mM CaCl2)). Approximately 2*10^5 cells were labeled with Annexin-V-FITC (Invitrogen) and PI (10 μg/ml, Millipore-Sigma) for 15 minutes in the dark before flow cytometric analysis (Accuri C6, Becton Dickinson). […] An aliquot of approximately 5*10^5 cells per sample was mixed with tetramethylrhodamine, ethyl ester, perchlorate (TMRE, Thermo Fisher, 100 nM final concentration) solution, incubated for 10 minutes in the dark, and analyzed by flow cytometer.

TPC1 and HCT116 = test: Polysome profiling (polysome/monosome ratio); assay type: cell-based; details: 24 hours
Description: TPC1 and HCT116 were plated at 6*104/cm2 on 143 cm2 dishes, cultivated o/n, and treated accordingly. Ten minutes before the harvest cultivation media was supplemented with cycloheximide (CHX) at final concentration of 100 μg/ml. Next, cells were washed twice with ice-cold PBS with 100 μg/ml CHX and lysed in polysome preparation lysis buffer (20 mM HEPES pH 7.4, 15 mM MgCl2, 200 mM NaCl, 1% Triton X-100, 100 μg/ml CHX, 2 mM DTT, and 100U SuperaseIN). Lysates were cleared of debris by centrifugation at 20,000g, 4° C. for 10 minutes. Total nucleic acid content in lysates was measured by absorbance at 260 nm and used for sample concentration normalization. Next, 500 μl of the lysate was loaded on 10-60% sucrose gradients in SW41 tubes in lysis buffer lacking Triton X-100. These gradients were prepared using a BioComp system and chilled to 4° C. before use. Samples were ultracentrifuged at 36,000 rpm for 3 hours and 10 min, at 4° C., then samples were fractionated using a BioComp system, monitoring absorbance at 260 nm while collecting fractions of approximately 0.4 ml each.

caspase 3 = test: Western blot of caspase 3 cleavage; assay type: cell-based; details: TPC1 cells; 20 μM nelfinavir, alone or with 10 μM nutlin-3a
Description: (§2) Following a brief sonication (2.5W, 5 sec) and heat denaturation (90° C., 5 min), total protein concentration in whole cell lysates was measured by a BCA Protein Assay Kit (Pierce, Thermo Fisher Scientific). 20 μg of protein per sample was resolved by SDS-PAGE and transferred onto a 0.45 μm PVDF membrane (0.2 μm for ATF3 detection). Membranes were incubated in blocking buffer (5% fat-free milk in wash buffer—20 mM Tris pH 7.6, 150 mM NaCl, 0.2% Tween 20) for an hour at RT and o/n at 4° C. with the primary antibody diluted in a fresh blocking buffer. Next day membranes were washed three times for 10 min in the wash buffer, incubated with HRP-conjugated secondary antibody for an hour at RT, and washed again three times in the wash buffer. SuperSignal West Pico Plus Chemiluminescence Substrate (Pierce) was used for detection and digital images were acquired using an ImageQuant LAS 4000 (GE Healthcare Life Sciences).

HCT116 xenograft tumors = test: HCT116 xenograft tumor model; assay type: in vivo; details: nude mice, 200 mg/kg nelfinavir and/or 200 mg/kg milademetan
Description: Athymic nude mice (NU/NU) weighting 20 to 30 grams and being 8-12 weeks of age (Charles River Labs) were housed in cages under standard conditions (22° C., 50% relative humidity, 12-h light/dark cycles) and provided with food and water ad libitum. Next, […] exponentially growing HCT116 cells resuspended in 100 μl Matrigel/PBS (5 mg/ml final) were injected subcutaneously into both flanks. Tumors grew for 10-14 days before treatment initiation. Experimental animals were given 200 mg/kg nelfinavir and/or 200 mg/kg Milademetan (Rain Therapeutics) by oral gavage once daily, 5 days a week. Tested compounds were prepared in a mixture of 2% Klucel (hydroxypropyl cellulose), 0.5% Tween 80, and 35% ethanol. Tumor volumes (v) were estimated daily, 5 days a week using caliper measurements and formula v=(I×w^2)/2, where I represents the greatest length of the tumor and w is tumor width in the perpendicular axis. Average volumes of the right and left flank tumors were used for plotting and calculations. Equal ratios of male and female mice were used in treatment groups (5 males and 5 females). All in vivo experiments were approved by the Institutional Animal Care and Use Committee at the CU-AMC (IACUC protocol 00432).
(§3) After indicated treatments, cells were washed with PBS, total RNA was extracted using Trizol substitute (38% Phenol, saturated, pH 4.3, 0.8 M guanidine thiocyanate, 0.4 M ammonium thiocyanate, 0.1 M sodium acetate, pH 5.0, 5% glycerol), and converted to cDNA with High-Capacity cDNA Reverse Transcription Kit (Thermo Fisher). Next, diluted cDNA was used in quantitative PCR reaction using SYBR Select Master Mix for CFX (Thermo Fisher). Detected mRNA levels were normalized to 18s rRNA values.
Tumors fixed in 4% formaldehyde were transferred to 70% ethanol and embedded in paraffin at the Pathology Shared Resource-Research Histology, University of Colorado Anschutz Medical Campus. Three tumors from each experimental group were sectioned, stained with DAPI and Ki67 primary antibody using Akoya Opal technology (Akoya Biosciences), and scanned at six representative regions with Vectra 3.0 (Akoya Biosciences) at the Human Immune Monitoring Shared Resource (University of Colorado Anschutz). Next, InForm image analysis software (Akoya Biosciences) was used for automated identification of nuclei based on the DAPI signal. Ki67 nuclear fluorescence was outputted for all nuclei.

elF2α = test: Western blot of elF2α phosphorylation; assay type: cell-based; details: 10 μM nutlin-3a, 25 μM GSK2830371, 20 μM nelfinavir; multiple cell lines
Description: as §2, with “Protein samples were prepared with cells washed twice with PBS and lysed in modified Laemmli buffer (Laemmli, 1970) (1% w/v SDS, 10% w/v glycerol, 100 mM Tris pH 7.2, protease (complete Mini, Roche) and phosphatase (PhosSTOP, Roche) inhibitors). Following” for “Following”

ATF3 and ATF4 = test: Western blot of ATF3 and ATF4 protein; assay type: cell-based; details: TPC1 cells; nelfinavir alone
Description: as §2, with “Protein samples were prepared with cells washed twice with PBS and lysed in modified Laemmli buffer (Laemmli, 1970) (1% w/v SDS, 10% w/v glycerol, 100 mM Tris pH 7.2, protease (complete Mini, Roche) and phosphatase (PhosSTOP, Roche) inhibitors). Following” for “Following”

p53 = test: Western blot of p53 in thyroid carcinoma cells; assay type: cell-based; details: TPC1 and K1 cells; 10 μM nutlin-3a, 25 μM GSK2830371; 24 hours
Description: as §2

cell viability = test: Cell viability after single-agent treatment; assay type: cell-based
ATF3 and ATF4 gene loci = test: GRO-seq transcriptional activity at ATF3 and ATF4 gene loci; assay type: cell-based; details: 60 minutes of nutlin treatment (10 μM); three different cell lines
K1 cells [1] = test: RNA-seq transcriptome analysis (DESeq2); assay type: cell-based, Human
Description: (§4) TPC1 and K1 cells were plated at 2*104/cm2 and treated for 24 hours as indicated. Following the treatment period, cells were washed with ice-cold PBS and lysed in TRI Reagent (Millipore Sigma). Quality of the extracted RNA was assessed by Agilent Bioanalyzer 2100 using RNA 6000 Pico chips (Agilent). Single-end 150 bp sequencing of the poly-A (+)-enriched RNA was carried out on the Illumina HiSeq 4000 platform by the Genomics Core facility at the University of Colorado Anschutz.
(§5) Quality of the sequencing data was analyzed using FASTQC (version 0.11.2, available at the website www.bioinformatics.babraham.ac.uk/projects/fastqc and presence of common sequencing contaminants was assessed by FastQ Screen (v0.4.4) available at the website www.bioinformatics.babraham.ac.uk/projects/fastq_screen/. Bases with low quality (Q<10) were 3′ end trimmed and reads shorter than 30 nt were discarded using the Fastx toolkit (v0.0.13.2). Reads were aligned to a GRCh37/hg19 Human reference using TopHat2 (v2.0.13,-b2-sensitive-keep-fasta-order-no-coverage-search-max-multihits 10-library-type fr-firststrand) (Kim et al., 2013) with the UCSC hg19 GTF annotation file provided in the iGenomes UCSC hg19 bundle available at the website: support.illumina.com/sequencing/sequencing_software/igenome.html. Aligned reads with MAPQ<10 quality were removed using SAMtools (v0.1.19). Alignments were then sorted by coordinates, and duplicates were identified using Picard (v1.129). Quality assessment of final mapped reads was conducted using RSeQC (v2.6) (Wang et al., 2012). Gene-level counts were obtained using HTSeq (v0.6.1) (Anders et al., 2015) with the following options (-stranded=reverse -minaqual=10-type=exon-idattr=gene_id_mode=intersection-nonempty) using the iGenomes UCSC hg19 GTF annotation file. Differential gene expression was evaluated using DESeq2 (version 1.6.3) (Love et al., 2014) in R (version 3.1.0), using q<0.05 (FDR<5%) and fold-change>1.5 (Up) or <1/1.5 (Down) as cutoffs for differentially expressed genes. Genome browser snapshots were generated from bedGraph or tgv files using IGV genome viewer (v2.8.10) (Thorvaldsdottir et al., 2013).

TPC1 cells [2] = test: RNA-seq transcriptome analysis (DESeq2); assay type: cell-based, Human
Description: as §4, §5

K1 cells [3] = test: Annexin V-FITC/PI apoptosis assay by flow cytometry; assay type: cell-based; details: 10 μM nutlin-3a, 25 μM GSK2830371, or both, 72 hours
Description: as §1
(§6) The fraction of apoptotic cells was determined by Annexin V-FITC/PI assay. Briefly, cells harvested by trypsinization were resuspended in Annexin-V binding buffer (10 mM HEPES pH 7.4, 140 mM NaCl, 2.5 mM CaCl2)). Approximately 2*10^5 cells were labeled with Annexin-V-FITC (Invitrogen) and PI (10 μg/ml, Millipore-Sigma) for 15 minutes in the dark before flow cytometric analysis (Accuri C6, Becton Dickinson). To analyze mitochondrial membrane potential […] cells were trypsinized and resuspended in cultivation media. An aliquot of approximately 5*10^5 cells per sample was mixed with tetramethylrhodamine, ethyl ester, perchlorate (TMRE, Thermo Fisher, 100 nM final concentration) solution, incubated for 10 minutes in the dark, and analyzed by flow cytometer.

TPC1 cells [4] = test: as above; assay type: cell-based; details: 10 μM nutlin-3a, 25 μM GSK2830371, or both, 72 hours
Description: as §1, §6

ATF3 and ATF4 mRNA = ATF3 and ATF4 mRNA induction (RNA-seq, Q-RT-PCR); assay type: cell-based, Human; details: TPC1, K1, and four other cell lines; 24 hours
Excerpt: as §3
as §4, with “Anschutz. […]” for “Anschutz.”

[5] = FDR<5%, adjusted fold change>1.5
[6] = nutlin 10 μM, GSK2830371 25 μM, or both, 24 hours

SMILES	synergy with small molecule inhibitors of MDM2 to elicit p53-dependent cell death (diverse cell types)	polysome/monosome ratio (TPC1 and HCT116)	caspase 3 cleavage / activation (caspase 3)	animal survival (Kaplan Meier; humane endpoint tumor size>1000 mm^3) (HCT116 xenograft tumors; oral gavage)	tumor growth (HCT116 xenograft tumors; oral gavage once daily, 5 days a week)	elF2α phosphorylation (elF2α)	ATF4 protein stabilization (ATF3 and ATF4)	p53 stabilization (p53)	effects on cell viability when administered alone (cell viability)	transactivation of ATF3 (GRO-seq) (ATF3 and ATF4 gene loci)	transactivation of ATF4 (GRO-seq) (ATF3 and ATF4 gene loci)	genes induced by both nutlin and nutlin+GSK2830371 (K1 cells [1]; [5]) [genes]	differentially expressed mRNAs versus vehicle (K1 cells [1]; [6])	genes induced by both nutlin and nutlin+GSK2830371 (TPC1 cells [2]; [5]) [genes]	differentially expressed mRNAs versus vehicle (TPC1 cells [2]; [6])	apoptosis (Annexin V-FITC/PI) (K1 cells [3])	apoptosis (Annexin V-FITC/PI) (TPC1 cells [4])	ATF3 induction at the mRNA level (ATF3 and ATF4 mRNA)	ATF4 induction at the mRNA level (ATF3 and ATF4 mRNA)
Cc1c(O)cccc1C(=O)N[C@@H](CSc1ccccc1)[C@H](O)CN1C[C@H]2CCCC[C@H]2C[C@H]1C(=O)NC(C)(C)C [nelfinavir]	synergize with small molecule inhibitors of MDM2 to elicit p53-dependent cell death	decreased the polysome/monosome ratio	did not induced caspase 3 cleavage	had to be sacrificed at the humane endpoint	Tumors continued to grow	induced elF2α phosphorylation	stabilized ATF4												
COc1ccc(C2=N[C@@H](c3ccc(Cl)cc3)[C@@H](c3ccc(Cl)cc3)N2C(=O)N2CCNC(=O)C2)c(OC(C)C)c1 [nutlin-3a]		decreases in the polysome/monosome ratio						stabilizes p53	limited effects on cell viability	rapid transactivation of ATF3	not ATF4	367	hundreds of mRNAs significantly upregulated or downregulated	1924	hundreds of mRNAs significantly upregulated or downregulated	does not cause p53-dependent apoptosis	does not cause p53-dependent apoptosis	clear induction of ATF3	not ATF4
